Experimental data taken from patent US5428016A, “Antimicrobial peptide and antimicrobial agent” (Morinaga Milk Industry Co., Ltd., priority 1991, dated 1995).
Where no end group is shown, it is not given here.

Assays:
Type in all cases: cell-based
[1] = test system: Klebsiella pneumoniae JCM 1662 T; conditions: JCM 1662, 17 h
Experimental: (§1) The antimicrobial peptides (samples Nos. 1 to 15) were prepared using the same methods as in Examples 1 to 15, and antimicrobial peptide derivatives (samples Nos. 16 to 18) were prepared using the same methods as in Examples 16 to 18, and were sterilized by filtration using a 0.45 μm Millex filter prior to use.
(§2) Various microbial strains shown in Table 4 in the logarithmic phase of growth were inoculated in a peptone medium which consisted of 1% Bactopeptone (manufactured by Difco Laboratory Co.) at a cell concentration of 10^6 /ml, and 160 μl thereof were incubated for 17 hours at 37° C. (or 30° C.) using a 96-hole microtiter plate (manufactured by Falcon Co.). Each sample was added to each medium at a ratio of 0, 1.5, 3, 6, 12, 25, 50, 100, 125 or 250 μM. The growth of the various microorganisms in the various samples at various concentrations was studied by measuring the light absorption at 660 nm.
(§3) The microorganisms used in this experiment are available from The Medical School Laboratories of Tokyo University (IID), Japanese Physicochemical Laboratories (JCM), Japanese International Dairy Federation (IDF), and the storage at the laboratory of the applicant (MMI).

[2] = test system: Listeria monocytogenes IDF 1b; conditions: 17 h
Experimental: as §1, §2, §3

[3] = test system: Pseudomonas aeruginosa MMI 603; conditions: MMI 603, 17 h
Experimental: as §1, §2, §3

[4] = test system: Staphylococcus aureus JCM 2151; conditions: JCM 2151, 17 h
Experimental: as §1, §2, §3

Escherichia coli IID 861 = test system: Escherichia coli IID 861
Experimental: as §1, §2, §3

[5] = test system: Escherichia coli MMI 0111; test: Antimicrobial spectrum, minimum inhibitory concentration
Experimental: as §1, §2, §3

| Substance | minimum inhibitory concentration (MIC) [1] | minimum inhibitory concentration (MIC) [2] | minimum inhibitory concentration (MIC) [3] | minimum inhibitory concentration (MIC) [4] | minimum inhibitory concentration (MIC) (Escherichia coli IID 861) [µM] | minimum inhibitory concentration (MIC) [5] [µM] |
| --- | --- | --- | --- | --- | --- | --- |
| KSRRRQWRMKK [Sample No. 12, Lys-Ser-Arg-Arg-Arg-Gln-Trp-Arg-Met-Lys-Lys] | up to 50 μM | up to 12 μM | up to 50 μM | up to 12 μM |  |  |
| KTRRWQWRMKK [Sample No. 11, Lys-Thr-Arg-Arg-Trp-Gln-Trp-Arg-Met-Lys-Lys] | up to 50 μM | up to 12 μM | up to 50 μM | up to 12 μM |  |  |
| KTVSWQTYMKK [Sample No. 13, Lys-Thr-Val-Ser-Trp-Gln-Thr-Tyr-Met-Lys-Lys] | up to 50 μM | up to 12 μM | up to 50 μM | up to 12 μM |  |  |
| KTRRWQWRMKK-NH2 [Sample No. 18, Lys-Thr-Arg-Arg-Trp-Gln-Trp-Arg-Met-Lys-Lys-NH2] |  |  |  |  | 3 | 6 |
| KTVSWR [Sample No. 8, Lys-Thr-Val-Ser-Trp-Arg] |  | up to 100 μM |  | up to 100 μM |  |  |
| RRRQWR [Sample No. 7, Arg-Arg-Arg-Gln-Trp-Arg] |  | up to 100 μM |  | up to 100 μM |  |  |
| KTFQWQRNMRK [Sample No. 14, Lys-Thr-Phe-Gln-Trp-Gln-Arg-Asn-Met-Arg-Lys] | up to 50 μM | up to 12 μM | up to 50 μM | up to 12 μM |  |  |
| RRWQWR [Sample No. 6, Arg-Arg-Trp-Gln-Trp-Arg] |  | up to 100 μM |  | up to 100 μM |  |  |
| RWQEMK [Sample No. 10, Arg-Trp-Gln-Glu-Met-Lys] |  | up to 100 μM |  | up to 100 μM |  |  |
| KTLRWQNEMRK [Sample No. 15, Lys-Thr-Leu-Arg-Trp-Gln-Asn-Glu-Met-Arg-Lys] | up to 50 μM | up to 12 μM | up to 50 μM | up to 12 μM |  |  |
| KRNMRK [Sample No. 9, Lys-Arg-Asn-Met-Arg-Lys] |  | up to 100 μM |  | up to 100 μM |  |  |
